In patent publication US20140271734A1, “BILE ACID RECYCLING INHIBITORS FOR TREATMENT OF BARRETT'S ESOPHAGUS AND GASTROESOPHAGEAL REFLUX DISEASE” (LUMENA PHARMACEUTICALS, INC., priority 2013, published 2014):

Key:
[1] = system: fecal total bile acid (FBA); assay: Fecal bile acids in dogs, LUM001 daily; assay type: in vivo, beagle dogs; conditions: 14 Days; for Weight-Adjusted Fecal Total Bile Acids Excretion: n=8
Description: (§1) Healthy female and male beagle dogs in the age range of 8 to 10 months were used. The animals were acclimated for at least four weeks before dose administration. Four female and four male dogs per dose group (groups 2-5) were given single daily doses of LUM001 at 1, 4, 12 and 30 mg free form/kg for 13 days. Animals in the control group (group 1) were given the same number of empty capsules as the animals of group 5 to treat all dose groups the same.
Fecal samples were collected to determine the fecal total bile acid (FBA) concentration for each animal. Fecal collections were made during the final 72 hours of the study, for three consecutive 24-hour periods between 9:00 am and 10:00 am each day, prior to dosing and feeding. The separate daily collections from each dog were weighed, combined and homogenized with distilled water in a food processor to generate a homogeneous slurry. Homogenate (1.4 g) was extracted in a final concentration ratio of 2:0.6 of 50% (v/v) tertiary butanol/distilled water for 45 minutes in a 37° C. water bath and subjected to centrifugation for 13 minutes at 2000×g. The concentration of bile acids (mmolesgram homogenate) was determined using a 96-well enzymatic assay system. Aliquots of the fecal extracts (20 μl) were added to two sets of triplicate wells in a 96 well assay plate. A standardized sodium taurocholate solution and a standardized fecal extract solution (previously made from pooled samples and characterized for its bile acid concentration) were also analyzed for assay quality control. Aliquots of sodium taurocholate (20 μl), were serially diluted to generate a standard curve containing 30-540 nmoles/well. A 230 μl aliquot of reaction mixture containing 1M hydrazine hydrate, 0.1 M pyrophosphate and 0.46 mg/ml NAD was added to each well. Subsequently, a 50 μl aliquot of either 3a-hydroxysteroid dehydrogenase enzyme (HSD; 0.8 units/ml) or assay buffer (0.1 M sodium pyrophosphate) was added to one each of the two sets of triplicates. Following 60 minutes of incubation at room temperature, the optical density at 340 nm was measured and the mean of each set of triplicate samples was calculated. The difference in optical density±HSD enzyme was used to determine the bile acid concentration (mM) of each sample based on the sodium taurocholate standard curve. The bile acid concentration of the extract (mmolesgram homogenate), the total weight of the fecal homogenate (grams) and the body weight of the dogs (kg) were used to calculate the corresponding FBA concentration in mmoles/kg/day for each animal. All reagents used for the assay were obtained from Sigma Chemical Co., St. Louis, Mo. (HSD—catalog # H-1506; NAD—catalog # N1636; sodium taurocholate—catalog # T-4009). A one-tailed, paired Student's t-test was used to determine the statistical significance of changes in FBA concentration in treated animals compared to pretreatment values and between treatment groups.

[2] = system: Cholesterol 7-α hydroxylase; assay: Cholesterol 7-α hydroxylase activity in liver microsomes of treated dogs; assay type: in vivo, beagle dogs; conditions: 14 Days; for Cholesterol 7a-hydroxylase: n=8
Description: as §1
At the end of the study, animals were anesthetized, their livers removed and flash frozen and stored at −80 C. Homogenates of three gram liver tissue samples were prepared in 25 ml homogenization buffer [0.1 M potassium phosphate buffer, pH 7.2, containing 0.1 M sucrose, 50 mM KCl, 50 mM NaF, 5 mM ethylene glycol-bis((3-aminoethyl ether)-N,N,N′,N′-tetraacetic acid (EGTA), 1 mM EDTA, 3 mM dithiothreitol (DTT), and 1 mM phenylmethylsulfonyl fluoride (PMSF)]. A microsomal fraction was prepared by centrifugation at 10,000×g for ten minutes. The supernatant was subjected to centrifugation at 105,000×g for two hours. The microsomal fraction was resuspended in a 0.1 M Na tetrapyrophosphate buffer (pH 10), with 50 mM NaF, and 1 mM EDTA, and subjected to centrifugation for one hour at 105,000×g. The microsomal fraction was resuspended in the homogenization buffer, and assayed for protein content by Coomassie Protein Plus Assay reagent.
Liver microsomes (1 mg) or 7-α-hydroxycholesterol standard solutions were preincubated for five minutes at 37° C. in a rocking water bath with 500 μl 5× buffer, 1.7 ml water, and 50 μl 0.1% (w/v) cholesterol as substrate in excess. The 5× buffer consists of 0.42 M Na2HPO4, 0.25 mM NaF, 0.08 M KH2PO4, 5 mM EDTA and 10 mM DTT. The reaction tubes were incubated at 37° C. in a rocking water bath throughout the remainder of the assay protocol, with cessation of rocking only for the period of time needed to add solutions. After the preincubation period, 250 μl of 10 mM NADPH was added and incubated for 5 minutes to allow enzymatic conversion of the cholesterol substrate to 7-α-hydroxycholesterol by endogenous 7-α-hydroxylase. The reaction was stopped by addition of 75 μl of 20% sodium cholate.
After four minutes, 25 μl of 100 μM 20-α-hydroxycholesterol was added to each tube as an internal recovery standard. The tubes were allowed to rock briefly in the water bath to mix, then 40 μl of 25 U/ml cholesterol oxidase was added and the tubes were incubated for ten minutes to convert 7-α-hydroxycholesterol and 20-α-hydroxycholesterol to their ketone forms, 7-α-hydroxycholesten-3-one and 20-α-hydroxycholesten-3-one. After the enzymatic reactions were completed, the ketone products were isolated by four sequential extractions in 20, 10, 10 and 10 ml petroleum ether, respectively. The collected volumes were evaporated to dryness under a flow of nitrogen gas between each extraction step using a heat block set at 50° C. The final dried samples were resuspended in 125 μl mobile phase solution consisting of 70:30 acetonitrile/methanol for analysis by reversed phase HPLC. Chromatography was performed on a 4.6×250 mm Beckman Ultrosphere ODS reverse phase column in mobile phase solution. The analyte, 7-α-hydroxy-4-cholesten-3-one, is quantified by absorption at 254 nm using the internal standard 20-α-hydroxy-4-cholesten-3-one to control for extraction efficiency.

[3] = system: Alanine Aminotransferase (ALAT); assay: Plasma alanine aminotransferase in ZDF rats, week 3; assay type: in vivo; conditions: twice daily oral gavage
plasma amylase = assay: Plasma amylase in ZDF rats, week 3; assay type: in vivo; conditions: twice daily oral gavage

Compound | Weight-Adjusted Fecal Total Bile Acids Excretion, % change from vehicle group ([1]; 1 mg/kg/day) | Weight-Adjusted Fecal Total Bile Acids Excretion ([1]; 1 mg/kg/day) [µmol/day/kg] | Weight-Adjusted Fecal Total Bile Acids Excretion, % change from vehicle group ([1]; 4 mg/kg/day) | Weight-Adjusted Fecal Total Bile Acids Excretion ([1]; 4 mg/kg/day) [µmol/day/kg] | Weight-Adjusted Fecal Total Bile Acids Excretion, % change from vehicle group ([1]; 12 mg/kg/day) | Weight-Adjusted Fecal Total Bile Acids Excretion ([1]; 12 mg/kg/day) [µmol/day/kg] | Weight-Adjusted Fecal Total Bile Acids Excretion, % change from vehicle group ([1]; 30 mg/kg/day) | Weight-Adjusted Fecal Total Bile Acids Excretion ([1]; 30 mg/kg/day) [µmol/day/kg] | Cholesterol 7a-hydroxylase, % change from vehicle group ([2]; 1 mg/kg/day) | Cholesterol 7a-hydroxylase ([2]; 1 mg/kg/day) [pmol/mg/min] | Cholesterol 7a-hydroxylase, % change from vehicle group ([2]; 4 mg/kg/day) | Cholesterol 7a-hydroxylase ([2]; 4 mg/kg/day) [pmol/mg/min] | Cholesterol 7a-hydroxylase, % change from vehicle group ([2]; 12 mg/kg/day) | Cholesterol 7a-hydroxylase ([2]; 12 mg/kg/day) [pmol/mg/min] | Cholesterol 7a-hydroxylase, % change from vehicle group ([2]; 30 mg/kg/day) | Cholesterol 7a-hydroxylase ([2]; 30 mg/kg/day) [pmol/mg/min] | Plasma alanine aminotransferase (ALAT) [3] | Plasma amylase (plasma amylase)
CCCCC1(CCCC)CS(=O)(=O)c2ccc(N(C)C)cc2[C@@H](c2ccc(OCc3ccc(C[N+]45CCN(CC4)CC5)cc3)cc2)[C@H]1O [LUM001] | (+63) % | 96 ± 9 | (+137) % | 140 ± 6 | (+158) % | 152 ± 13 | (+183) % | 167 ± 15 | (+28) % | 114 ± 18 | (+101) % | 179 ± 22 | (+219) % | 284 ± 41 | (+378) % | 425 ± 58 | – | –
CCCC[C@]1(CC)CS(=O)(=O)c2ccc(N(C)C)cc2[C@@H](c2cccc(NC(=O)N[C@@H]3O[C@H](COS(=O)(=O)[O-])[C@@H](O)[C@H](OCc4ccccc4)[C@H]3O)c2)[C@H]1O.CCO.O.[K+] [LUM002, potassium((2R,3R,4S,5R,6R)-4-benzyloxy-6-{3-[3-((3S,4R,5R)-3-butyl-7-dimethylamino-3-ethyl-4-hydroxy-1,1-dioxo-2,3,4,5-tetrahydro-1H-benzo[b]thiepin-5-yl)-phenyl]-ureido}-3,5-dihydroxy-tetrahydro-pyran-2-ylmethyl)sulphate ethanolate, hydrate] | – | – | – | – | – | – | – | – | – | – | – | – | – | – | – | – | Neither LUM002 nor SC-435 caused statistically significant reductions | Neither LUM002 nor SC-435 caused a statistically significant changes
